# From patent US20050186137A1, “Novelty-induced hypophagia-based assays for identifying agents to treat anxiety and depression” (priority 2003, published 2005)
# Like-named read-outs stand apart in the source and are kept apart here.
# Legend:
# BALB/cJ mice [1] = assay: Open field test, chronic vs. subchronic fluoxetine; type: in vivo, mouse
# Procedure: (§1) For chronic fluoxetine studies in BALB/cJ mice, 60 male BALB/cJ mice were tested in the OF for 30 min on days 19 or 20 of chronic fluoxetine treatment. Mice were then pretested and tested in the modified FST on days 21 and 22, respectively. Animals were then allowed to adapt to being singly housed, and were trained for NIH on days 25-27. Home cage and novel cage testing occurred on days 28 and 29, respectively. Mice were then assessed for PPI on days 34 or 35.
# (§2) Studies of subchronic fluoxetine were conducted using separate groups of 60 male BALB/cJ mice to prevent fluoxetine treatment from exceeding one week. One group was tested in the OF after one day of subchronic fluoxetine treatment. Mice were then pretested after 6 and tested after 7 days of subchronic fluoxetine treatment in the modified FST. A second group of BALB/cJ mice began fluoxetine treatment after being singly housed. They were then tested in the NIH test after 4 (home) and 5 (novel) days of subchronic fluoxetine treatment. A third group was tested for PPI after one or two days of subchronic fluoxetine treatment.
# (§3) Open field test: Motor activity was quantified in four Plexiglas OF boxes 43 x 43 cm (MED Associates, Georgia, Vt.). Two sets of 16 pulse-modulated infrared photobeams were placed on opposite walls 2.5-cm apart to record x-y ambulatory movements. Activity chambers were computer interfaced for data sampling at 100-ms resolution. The computer defined grid lines that divided each OF into center and surround regions, with each of four lines being 11 cm from each wall. Dependent measures were the number of entries into the center, the distance traveled in the center, total time spent in the center, and distance traveled in the center divided by total distance traveled. Overall motor activity was quantified as the total distance traveled (cm).
# (§4) Open field test: For Experiment 1, two-factor ANOVAs with fluoxetine as a between-subject factor and day as a within-subject factor were applied to five measures for each strain: time spent in the center, distance traveled in the center, center distance/total distance traveled, entries into the center, and total distance traveled. Main effects of fluoxetine or significant interactions of fluoxetine and day were resolved using post-hoc ANOVAs with adjusted p-values and/or Newman-Keuls post-hoc tests. Subchronic and chronic experiments in Balb/cJ mice were analyzed using one-way ANOVAs with fluoxetine as a between-subjects factor and Newman-Keuls post-hoc tests for the same variables. Because data deviated substantially from a normal distribution due to low activity levels of Balb/cJ mice, analyses were applied to log transformed data.
# (§5) Remaining significant effects of fluoxetine indicate independence between measures of locomotor activity and center measures.
# animals = animals without drug withdrawal or chronic stress; low dose fluoxetine; cited from earlier work
# [2] = administration of fluoxetine in the drinking water; cited from earlier work
# BALB/cJ mice [3] = conditions: acute 10 mg/kg fluoxetine; cited from earlier work
# BALB/cJ mice [4] = assay: Modified forced swim test, chronic vs. subchronic fluoxetine; type: in vivo, mouse
# Procedure: as §1, §2
# Modified forced swim test: Mice were placed into 19 cm diameter plastic buckets which were 23 cm deep filled with 23°-25° C. water, and videotaped for six minutes. Only the last four minutes were scored for four measures: swimming, immobility, climbing, or other. The predominant behavior was recorded every 5 sec. For chronic and subchronic fluoxetine studies in BALB/cJ mice, mice were pre-exposed to the FST for 6 min 24 hours before test day to increase sensitivity for detecting antidepressant behavioral effects (Borsini et al., 1989).
# Modified forced swim test: Two-factor ANOVAs with fluoxetine as a between-subjects factor and block (1 min intervals) as a within-subject factor were applied to three different measures: swimming, immobility, and climbing. Significant main effects of fluoxetine and interactions were resolved using post-hoc ANOVAs with adjusted p-values, and/or Newman-Keuls post-hoc tests.
# [5] = tested on: BALB/cJ, DBA/2J, C57BL/6J, and 129SvEv mice; assay: Open field test, strain comparison; type: in vivo, mouse; conditions: for center measures: chronic fluoxetine 5 or 10 mg/kg/day
# Procedure: For the strain comparison study, 36 male mice of four strains (BALB/cJ, DBA/2J, C57BL/6J, 129SvEv) were subjects for a total of 144 mice. Mice were tested in the OF beginning on day 30 or 33 of chronic fluoxetine treatment. Mice were tested for 15 min on three consecutive days to maximize activity levels. Mice were then tested in the modified FST on day 36 or 37.
# as §3, §4, §5
# [6] = chronic 18 mg/kg/day vs controls
# [7] = 129SvEv mice, chronic 5 and 10 mg/kg/day, day 1, relative to controls
smiles,measurement,setting,value
CNCCC(Oc1ccc(C(F)(F)F)cc1)c1ccccc1 (stereo not shown) [fluoxetine],log of center entries,BALB/cJ mice [1]; chronic 10 mg/kg/day,lower values than groups receiving 18 mg/kg/day and 25 mg/kg/day
same,"center entries, without logarithmic transformation",BALB/cJ mice [1]; [6],made more center entries
same,"center/total distance, without logarithmic transformation",BALB/cJ mice [1]; [6],trend for higher center/total distance values
same,log of center distance,BALB/cJ mice [1]; [6],significantly higher values than controls
same,log of center distance/log total distance traveled,BALB/cJ mice [1]; [6],significantly higher values than controls
same,log of center entries,BALB/cJ mice [1]; [6],significantly higher values than controls
same,log of time in the center,BALB/cJ mice [1]; chronic fluoxetine,no significant effect of drug
same,total locomotor activity (log transformed),"BALB/cJ mice [1]; chronic fluoxetine 10, 18, 25 mg/kg/day, 30 min test",did not alter total locomotor activity
same,"total locomotor activity, without logarithmic transformation","BALB/cJ mice [1]; chronic fluoxetine, all doses",remain unaffected by all doses of drug
same,any measures in the OF,"BALB/cJ mice [1]; subchronic (one day) fluoxetine, untransformed or log transformed",no differences in any measures in the OF
same,intracranial self-stimulation reward thresholds,animals,no effect
same,time by which steady state blood levels have been achieved,[2],≤ 5 days
same,immobility,BALB/cJ mice [3],reduces immobility acutely
same,effect in the modified FST,"BALB/cJ mice [4]; acute administration of 10 mg/kg/day in the drinking water, expected",no effect
same,climbing,BALB/cJ mice [4]; chronic 25 mg/kg/day,increased climbing relative to all other doses
same,swimming,"BALB/cJ mice [4]; chronic 10 and 18 mg/kg/day, compared to 0 and 25 mg/kg/day",increases in swimming
same,immobility,BALB/cJ mice [4]; chronic fluoxetine,No significant effects
same,climbing,BALB/cJ mice [4]; subchronic (7 days) 18 mg/kg/day relative to the 0 dose,increase in climbing
same,immobility,BALB/cJ mice [4]; subchronic (7 days) fluoxetine,no effect
same,swimming,BALB/cJ mice [4]; subchronic (7 days) fluoxetine,no effect
same,locomotor activity,"[5]; 129SvEv mice, chronic 10 mg/kg/day, relative to both other doses on day 1 and to 5 mg/kg/day on day 3",reduced locomotor activity
same,time in the center,"[5]; 129SvEv mice, chronic 5 and 10 mg/kg/day",reduced time in the center relative to control
same,center entries,[5]; [7],reduced
same,distance traveled in the center,[5]; [7],reduced the distance traveled in the center
same,center measures,[5]; BALB/cJ mice,produced no changes
same,locomotor activity,"[5]; BALB/cJ mice, chronic fluoxetine 5 or 10 mg/kg/day in drinking water, three consecutive days",no changes in locomotor activity
same,locomotor activity,"[5]; C57BL/6J mice, chronic 10 mg/kg/day, relative to controls",reduced locomotor activity overall
same,entries into the center,"[5]; C57BL/6J mice, chronic 5 and 10 mg/kg/day, relative to control",overall reduction in the number of entries into the center
same,center measures,[5]; DBA/2J mice,produced no changes
same,locomotor activity,"[5]; DBA/2J mice, chronic fluoxetine (10 mg/kg/day vs controls on day 3)",trend towards increased locomotor activity
same,center/total distance traveled,"[5]; any of the four strains, chronic fluoxetine",no effects
